The nature of assay [1]: Counterscreen for AddAB inhibitors: absorbance-based bacterial cell-based high throughput dose response assay for inhibitors of bacterial viability. [Related pubchem assays (depositor defined):AID435030, AID449728, AID449731, AID488942, AID488955, AID488956]. Format: functional. A general note: The purpose of a counterscreen is to sort out artefacts and off-target activity.

For another assay, the target named is T1, Caspase-3 (Homo sapiens, UniProt P42574).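 Also: Dose-response selectivity test against caspase-3 for candidate inhibitors of sentrin-specific proteases (SENPs).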
T1 sequence (P42574 whole entry): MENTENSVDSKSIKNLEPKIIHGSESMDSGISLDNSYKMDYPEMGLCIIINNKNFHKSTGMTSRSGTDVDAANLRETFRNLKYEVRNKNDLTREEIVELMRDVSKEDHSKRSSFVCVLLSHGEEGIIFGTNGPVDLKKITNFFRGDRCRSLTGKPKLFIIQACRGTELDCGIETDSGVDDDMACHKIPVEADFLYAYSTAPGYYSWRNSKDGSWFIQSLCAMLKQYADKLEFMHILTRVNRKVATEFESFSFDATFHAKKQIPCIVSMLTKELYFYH
The class given is functional.

Assay [2] can be described thus: Artemis endonuclease inhibitor potency, dose response, biochemical, fluorescence intensity (AID 720701).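 Also: Artemis endonuclease enzyme.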 The class given is functional.
For assay [3], the target named is T2, Sentrin-specific protease 6 (Homo sapiens, UniProt Q9GZR1).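 Also: Luminescence-based dose-response confirmatory assay of SENP6 inhibition, following up an ultra-high-throughput screen.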
T2 sequence (Q9GZR1 whole entry): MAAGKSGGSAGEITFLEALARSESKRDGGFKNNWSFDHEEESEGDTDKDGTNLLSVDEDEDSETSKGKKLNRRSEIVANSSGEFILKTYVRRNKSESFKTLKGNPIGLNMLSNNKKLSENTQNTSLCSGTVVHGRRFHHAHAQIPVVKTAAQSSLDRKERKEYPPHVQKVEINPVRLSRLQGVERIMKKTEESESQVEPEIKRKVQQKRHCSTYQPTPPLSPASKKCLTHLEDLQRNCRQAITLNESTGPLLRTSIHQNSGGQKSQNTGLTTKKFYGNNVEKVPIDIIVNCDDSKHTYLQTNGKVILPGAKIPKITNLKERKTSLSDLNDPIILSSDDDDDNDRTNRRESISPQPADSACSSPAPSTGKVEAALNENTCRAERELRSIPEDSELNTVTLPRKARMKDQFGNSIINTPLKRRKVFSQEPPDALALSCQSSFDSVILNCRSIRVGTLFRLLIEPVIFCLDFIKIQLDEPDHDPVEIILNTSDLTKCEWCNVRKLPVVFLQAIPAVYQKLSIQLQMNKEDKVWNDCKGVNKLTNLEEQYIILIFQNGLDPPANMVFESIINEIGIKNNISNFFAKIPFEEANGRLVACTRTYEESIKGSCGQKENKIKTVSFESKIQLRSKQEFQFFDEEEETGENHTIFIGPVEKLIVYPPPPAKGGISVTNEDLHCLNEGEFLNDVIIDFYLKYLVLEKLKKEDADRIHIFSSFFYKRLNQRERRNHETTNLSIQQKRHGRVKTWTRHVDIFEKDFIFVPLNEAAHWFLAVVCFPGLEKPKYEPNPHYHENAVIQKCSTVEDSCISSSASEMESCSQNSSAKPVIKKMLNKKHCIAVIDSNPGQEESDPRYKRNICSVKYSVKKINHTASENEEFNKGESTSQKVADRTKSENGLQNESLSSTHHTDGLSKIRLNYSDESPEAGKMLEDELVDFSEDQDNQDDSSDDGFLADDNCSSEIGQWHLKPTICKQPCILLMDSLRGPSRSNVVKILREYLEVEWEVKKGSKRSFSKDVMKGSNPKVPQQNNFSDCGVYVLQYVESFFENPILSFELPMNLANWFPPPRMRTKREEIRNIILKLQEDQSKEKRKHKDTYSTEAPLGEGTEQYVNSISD
The class given is functional.

Assay [4] addresses T3, Tyrosyl-DNA phosphodiesterase 2 (Homo sapiens, UniProt O95551).
T3 sequence (O95551 whole entry): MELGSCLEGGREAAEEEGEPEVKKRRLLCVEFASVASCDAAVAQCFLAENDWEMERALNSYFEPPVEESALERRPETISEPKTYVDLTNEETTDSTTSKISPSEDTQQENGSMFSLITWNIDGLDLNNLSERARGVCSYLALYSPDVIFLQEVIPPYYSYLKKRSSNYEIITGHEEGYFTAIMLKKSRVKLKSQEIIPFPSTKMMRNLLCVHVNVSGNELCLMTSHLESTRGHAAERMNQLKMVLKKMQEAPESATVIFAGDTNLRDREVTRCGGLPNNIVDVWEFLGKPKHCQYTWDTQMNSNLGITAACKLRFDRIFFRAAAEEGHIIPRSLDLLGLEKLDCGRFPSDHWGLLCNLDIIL
The assay is described as follows: human TDP2 enzyme inhibitors, dose response, biochemical, epi absorbance, IC50 (AID 743297).

Active and inactive are the calls of the source.

The IC50 is the point on the concentration scale where inhibition reaches its midpoint.

For the compound `O=[N+]([O-])c1ccc(N/N=C/c2ccc[nH]2)cc1`, the IC50 in assay [1] was > 119 µM (inactive).

With `CC(=O)N(/N=C1\Sc2ccccc2C1=O)c1cccc(C)c1`, the IC50 on Caspase-3 is 65.8 µM (active); in assay [2], 18.3 µM (active); in assay [3] it was 6.06 µM (active); in assay [4], 6.48 µM (active).

The record behind these values is ChEMBL document CHEMBL1201862, “PubChem BioAssay data set” (2004).
